Drawing on patent publication US7432255B2, “1H-indol-5-yl-piperazin-1-yl-methanone derivatives” (Hoffmann-La Roche Inc., priority 2006, dated 2008), this text covers Ki for three compounds.

The target in the test is T1, human H3R (Homo sapiens, UniProt Q9Y5N1).
T1 construct: expressed in transfected cells; host or cells: CHO cells
Nature of the test: Binding assay with 3H-(R)α-methylhistamine (competition binding). The note with it: competition binding vs 3H(R)α-methylhistamine (1 nM), membrane of the human H3R-CHO cell line; Ki calculated from IC50 by Cheng-Prusoff equation. The protocol:
Binding Assay with ^3H—(R)α-methylhistamine
Saturation binding experiments were performed using HR3-CHO membranes prepared as described in Takahashi, K, Tokita, S., Kotani, H. (2003) J. Pharmacol. Exp. Therapeutics 307, 213-218.
An appropriate amount of membrane (60 to 80 μg protein/well) was incubated with increasing concentrations of ^3H(R)α-Methylhistamine di-hydrochloride (0.10 to 10 nM). Non specific binding was determined using a 200 fold excess of cold (R)α-methyl-histamine dihydrobromide (500 nM final concentration). The incubation was carried out at room temperature (in deep-well plates shaking for three hours). The final volume in each well was 250 μl. The incubation was followed by rapid filtration on GF/B filters (pre-soaked with 100 μl of 0.5% PEI in Tris 50 mM shaking at 200 rpm for two hours). The filtration was made using a cell-harvester and the filter plates were then washed five times with ice cold washing buffer containing 0.5 M NaCl. After harvesting, the plates were dried at 55° C. for 60 min, then scintillation fluid (Microscint 40, 40 microl in each well) was added and the amount of radioactivity on the filter was determined in Packard top-counter after shaking the plates for two hours at 200 rpm at room temperature.
Binding Buffer: 50 mM Tris-HCl pH 7.4 and 5 mM MgCl2×6H2O pH 7.4. Washing Buffer: 50 mM Tris-HCl pH 7.4 and 5 mM MgCl2×6H2O and 0.5 M NaCl pH 7.4.
Indirect measurement of affinity of H3R inverse agonists: twelve increasing concentrations (ranging from 10 μM to 0.3 nM) of the selected compounds were always tested in competition binding experiments using membrane of the human H3R—CHO cell line. […]
All compounds were tested at a single concentration in duplicate. […] Ki's were calculated from IC50 based on Cheng-Prusoff equation (Cheng, Y, Prusoff, W H (1973) Biochem Pharmacol 22, 3099-3108): Ki=IC50/[1+D/Kd] wherein D is the concentration of the radioligand and Kd is the binding constant for the radioligand binding to the receptor under the conditions used in the competition experiment.

T1 sequence (Q9Y5N1 whole entry): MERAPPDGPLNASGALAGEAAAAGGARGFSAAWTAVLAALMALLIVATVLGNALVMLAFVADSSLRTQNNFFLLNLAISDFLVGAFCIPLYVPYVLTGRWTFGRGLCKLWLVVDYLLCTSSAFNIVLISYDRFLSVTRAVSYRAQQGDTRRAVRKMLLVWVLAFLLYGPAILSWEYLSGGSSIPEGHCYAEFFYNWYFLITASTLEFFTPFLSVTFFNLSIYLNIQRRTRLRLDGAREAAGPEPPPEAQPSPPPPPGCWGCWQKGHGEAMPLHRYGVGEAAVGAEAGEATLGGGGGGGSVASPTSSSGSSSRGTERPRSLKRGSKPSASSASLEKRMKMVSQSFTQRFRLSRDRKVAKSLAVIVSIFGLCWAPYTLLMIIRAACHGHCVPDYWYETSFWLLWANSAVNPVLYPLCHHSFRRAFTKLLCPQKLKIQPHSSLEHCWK

With `O=C(c1ccc2c(ccn2CC2CCCN(Cc3ccccc3)C2)c1)N1CCN(C2CCCC2)CC1` (stereo not drawn) [Example 11, [1-(1-benzyl-piperidin-3-ylmethyl)-1H-indol-5-yl]-(4-cyclopentyl-piperazin-1-yl)-methanone], the Ki is 0.0121 µM.
With `CCN1CCC(n2ccc3cc(C(=O)N4CCN(C5CCCC5)CC4)ccc32)C1` (stereo not drawn) [Example 6, (4-cyclopentyl-piperazin-1-yl)-[1-(1-ethyl-pyrrolidin-3-yl)-1H-indol-5-yl]-methanone] the figure was 0.0059 µM.
With `CC(C)N1CCN(C(=O)c2ccc3c(ccn3CCCN3CCCCC3C)c2)CC1` (stereo not drawn) [Example 59, (4-isopropyl-piperazin-1-yl)-{1-[3-(2-methyl-piperidin-1-yl)-propyl]-1H-indol-5-yl}-methanone] the figure was 0.0154 µM.
